Source: ChEMBL document CHEMBL1201862, “PubChem BioAssay data set” (2004)
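Method: 48-hour compound exposure of cells in 96-well plates, five concentrations, linear interpolation of endpoints. GI50 = concentration required for 50% inhibition of growth.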 Activity calls are given as the source filed them. Cut-off read from the data, not from the text of the source: active = GI50 up to about 1.1 µM and inactive = higher.

Experiments:
Test in all cases: NCI anticancer screen, dose series, 48 h
HT-29 = test system: HT-29
LOX IMVI = test system: LOX IMVI
HOP-92 = test system: HOP-92
UACC-257 = test system: UACC-257
NCI-H460 = test system: NCI-H460
SF-268 = test system: SF-268
SN12C = test system: SN12C
M14 = test system: M14
ACHN = test system: ACHN
RXF 393 = test system: RXF 393
A549 = test system: A549
HL-60 = test system: HL-60
Malme-3M = test system: Malme-3M
A498 = test system: A498
NCI-H23 = test system: NCI-H23
SK-MEL-5 = test system: SK-MEL-5
UACC-62 = test system: UACC-62
786-0 = test system: 786-0
COLO 205 = test system: COLO 205
CCRF-CEM = test system: CCRF-CEM

Measured: GI50

CC(=O)c1ccc(NC(=O)/C(CC(=O)/C=C/c2ccccc2)=N/NC(N)=S)cc1
inactive: HT-29 41.5 µM | LOX IMVI > 100 µM | HOP-92 > 100 µM | UACC-257 > 100 µM | NCI-H460 68.4 µM | SF-268 > 100 µM | SN12C > 100 µM | M14 > 100 µM | ACHN 66.1 µM | RXF 393 > 100 µM | A549 > 100 µM | HL-60 80.7 µM | Malme-3M > 100 µM | A498 > 100 µM | NCI-H23 60 µM | SK-MEL-5 43.7 µM | UACC-62 > 100 µM | 786-0 > 100 µM

CC(Cc1ccccc1)NC1=NCCO1 (stereo not drawn)
inactive: HT-29 20.1 µM | LOX IMVI 18.2 µM | HOP-92 26.9 µM | NCI-H460 17.9 µM | SN12C 21.8 µM | ACHN 46 µM | RXF 393 52.5 µM | A549 38.8 µM | A498 29.8 µM | NCI-H23 24.9 µM | SK-MEL-5 32.3 µM | UACC-62 52.4 µM | COLO 205 17.5 µM

Nc1ccc(S(=O)(=O)c2ccc(NCN3C(=O)NC(=O)C(=O)C3=O)cc2)cc1 [ALLANTODAPSONE]
inactive: HT-29 > 100 µM | LOX IMVI > 100 µM | HOP-92 > 100 µM | UACC-257 > 100 µM | NCI-H460 > 100 µM | SF-268 > 100 µM | SN12C > 100 µM | M14 > 100 µM | ACHN > 100 µM | RXF 393 > 100 µM | A549 > 100 µM | Malme-3M > 100 µM | A498 > 100 µM | NCI-H23 > 100 µM | SK-MEL-5 > 100 µM | CCRF-CEM 95.7 µM | UACC-62 > 100 µM | 786-0 > 100 µM

CCOC(=O)c1c(Cl)nc2ccccc2c1N=[N+]=[N-]
inactive: HT-29 19.6 µM | LOX IMVI 20.5 µM | HOP-92 24.7 µM | UACC-257 21.8 µM | NCI-H460 23.7 µM | SF-268 16.4 µM | SN12C 16.8 µM | M14 19.1 µM | ACHN 40.3 µM | RXF 393 44.6 µM | A549 66.8 µM | HL-60 67 µM | Malme-3M 34.8 µM | A498 > 100 µM | NCI-H23 27.7 µM | SK-MEL-5 44.5 µM | CCRF-CEM 41 µM | COLO 205 21.5 µM

N#CC1(C#N)C(c2ccccc2)NC23CCCCC2C1(C#N)C(=O)N3 (stereo not drawn)
inactive: HT-29 > 100 µM | HOP-92 > 100 µM | UACC-257 > 100 µM | NCI-H460 > 100 µM | SF-268 > 100 µM | SN12C > 100 µM | M14 > 100 µM | ACHN > 100 µM | RXF 393 > 100 µM | A549 > 100 µM | Malme-3M > 100 µM | A498 > 100 µM | NCI-H23 > 100 µM | CCRF-CEM 51.6 µM | UACC-62 > 100 µM | 786-0 > 100 µM | COLO 205 > 100 µM

C[Si](C)(N[Si](C)(C)OCCc1ccccc1)OCCc1ccccc1
inactive: HT-29 > 100 µM | LOX IMVI > 100 µM | HOP-92 > 100 µM | UACC-257 > 100 µM | NCI-H460 > 100 µM | SN12C > 100 µM | M14 > 100 µM | ACHN > 100 µM | RXF 393 > 100 µM | HL-60 > 100 µM | A498 > 100 µM | NCI-H23 > 100 µM | SK-MEL-5 > 100 µM | CCRF-CEM > 100 µM | UACC-62 > 100 µM | 786-0 > 100 µM

COC1=CC(=O)OC(/C=C(C)/C=C/C2=C(C)CCCC2(C)C)C1 (stereo not drawn)
inactive: HT-29 > 100 µM | HOP-92 > 100 µM | UACC-257 > 100 µM | NCI-H460 > 100 µM | SF-268 > 100 µM | SN12C > 100 µM | M14 > 100 µM | ACHN > 100 µM | RXF 393 > 100 µM | A549 > 100 µM | HL-60 > 100 µM | Malme-3M > 100 µM | A498 > 100 µM | NCI-H23 > 100 µM | SK-MEL-5 > 100 µM | CCRF-CEM > 100 µM | UACC-62 > 100 µM | 786-0 > 100 µM

O=C(O)C(SC(=S)c1ccc(C(=S)SC(C(=O)O)c2ccccc2)cc1)c1ccccc1 (stereo not drawn)
inactive: HT-29 67.1 µM | LOX IMVI 50.6 µM | HOP-92 > 100 µM | UACC-257 > 100 µM | NCI-H460 > 100 µM | SF-268 97.3 µM | SN12C > 100 µM | M14 > 100 µM | ACHN > 100 µM | RXF 393 > 100 µM | A549 > 100 µM | HL-60 > 100 µM | Malme-3M > 100 µM | A498 69.8 µM | NCI-H23 > 100 µM | SK-MEL-5 > 100 µM | CCRF-CEM > 100 µM | UACC-62 47.3 µM | 786-0 40.9 µM

O=C(O)/C(O)=C1/C=C(c2ccccc2)c2ccccc21
inactive: HT-29 33.1 µM | LOX IMVI 17.9 µM | HOP-92 18.9 µM | UACC-257 20.8 µM | NCI-H460 26.4 µM | SF-268 22 µM | SN12C 23.8 µM | M14 21.1 µM | ACHN 30.1 µM | RXF 393 19.4 µM | A549 26.2 µM | HL-60 19.9 µM | Malme-3M 25.5 µM | A498 31.7 µM | SK-MEL-5 17.7 µM | CCRF-CEM 18.7 µM | UACC-62 16.1 µM | 786-0 28.4 µM | COLO 205 18 µM

CN(N=O)c1nc2c(C(N)=O)ncn2s1
inactive: HT-29 > 100 µM | LOX IMVI 15.2 µM | HOP-92 32.7 µM | UACC-257 94.6 µM | NCI-H460 52.1 µM | SF-268 55.5 µM | SN12C 97.7 µM | M14 15.7 µM | ACHN 57.3 µM | RXF 393 > 100 µM | A549 > 100 µM | Malme-3M 85.7 µM | A498 > 100 µM | NCI-H23 > 100 µM | SK-MEL-5 > 100 µM | CCRF-CEM 45.4 µM | UACC-62 32.7 µM | 786-0 85.1 µM | COLO 205 > 100 µM

COc1ccc(-c2cc(N3CCN(c4ccccc4)CC3)c(C#N)c(=O)o2)cc1
inactive: HT-29 > 100 µM | LOX IMVI 30.5 µM | HOP-92 55 µM | UACC-257 50.1 µM | NCI-H460 26.5 µM | SF-268 8.55 µM | SN12C 30.2 µM | M14 > 100 µM | ACHN 28.6 µM | RXF 393 13.7 µM | A549 21.2 µM | HL-60 60.7 µM | Malme-3M 19.4 µM | A498 26.9 µM | NCI-H23 47.6 µM | SK-MEL-5 36.4 µM | CCRF-CEM 98.4 µM | COLO 205 > 100 µM
